Measured values as given in PubChem BioAssay (NCI).
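Five compound concentrations were applied to cells in 96-well plates for 48 hours; endpoints were derived by simple linear interpolation of the resulting dose-response curve. GI50 = concentration required for 50% inhibition of growth. TGI: concentration producing complete growth inhibition.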

What was measured:
Test in all cases: NCI-60 cell line screen, 48 h
HCT-15 colon = test system: HCT-15 colon
LOX IMVI melanoma = test system: LOX IMVI melanoma
MALME-3M melanoma = test system: MALME-3M melanoma
OVCAR-8 ovarian = test system: OVCAR-8 ovarian
SF-268 CNS = test system: SF-268 CNS
SK-OV-3 ovarian = test system: SK-OV-3 ovarian
TK-10 renal = test system: TK-10 renal
U251 CNS = test system: U251 CNS
UACC-62 melanoma = test system: UACC-62 melanoma
NCI-H522 lung = test system: NCI-H522 lung

SMILES	GI50 (HCT-15 colon)	TGI (HCT-15 colon)	GI50 (LOX IMVI melanoma)	TGI (LOX IMVI melanoma)	GI50 (MALME-3M melanoma)	TGI (MALME-3M melanoma)	GI50 (OVCAR-8 ovarian)	TGI (OVCAR-8 ovarian)	GI50 (SF-268 CNS)	TGI (SF-268 CNS)	GI50 (SK-OV-3 ovarian)	TGI (SK-OV-3 ovarian)	GI50 (TK-10 renal)	TGI (TK-10 renal)	GI50 (U251 CNS)	TGI (U251 CNS)	GI50 (UACC-62 melanoma)	TGI (UACC-62 melanoma)	GI50 (NCI-H522 lung)	TGI (NCI-H522 lung)
COc1cc([N+](=O)[O-])c2ncccc2c1O	2.56 µM	13.4 µM	3.88 µM	33.6 µM	1.99 µM	4.74 µM	8.71 µM	> 100 µM	9.79 µM	67.1 µM	3.36 µM	14.4 µM	10.7 µM	94.5 µM	3.2 µM	> 100 µM	1.94 µM	5.1 µM		
CCn1c(-c2cc3ccccc3cc2OC(=O)c2ccccc2)n[nH]c1=S	> 50 µM	> 50 µM	26.6 µM	> 50 µM	> 50 µM	> 50 µM			> 50 µM	> 50 µM	> 50 µM	> 50 µM	> 50 µM	> 50 µM	> 50 µM	> 50 µM	28.8 µM	> 50 µM	11 µM	45.4 µM
N#CC(C#N)=C/C=C/c1cccc([N+](=O)[O-])c1	1.39 µM	3.98 µM	0.913 µM	2.37 µM	1.69 µM	8.87 µM	0.329 µM	1.36 µM	1.54 µM	12.9 µM	2.62 µM	9.2 µM			1.08 µM	5.03 µM	1.3 µM	2.96 µM		
COc1cc(C(N)=O)c(OC)c(OC)c1OC		> 100 µM		> 100 µM				> 100 µM		> 100 µM		> 100 µM		> 100 µM		> 100 µM		> 100 µM		> 100 µM
Clc1ccc(CCN2CCOCC2)c(Cl)c1		> 100 µM				> 100 µM		> 100 µM		> 100 µM		> 100 µM				> 100 µM		> 100 µM		> 100 µM
ClCc1ccc(Cn2cnc3ncnc(Cl)c32)cc1							3.14 µM	11 µM	1.64 µM	3.43 µM	11.3 µM	23.3 µM	1.48 µM	2.92 µM	1.09 µM	2.29 µM	2.5 µM	12 µM	4.3 µM	> 100 µM
NC(=O)c1ccc(-c2c3ccccc3cc3c2ccc2ccccc23)cc1	2.81 µM	> 100 µM	4.86 µM	32.6 µM	4.99 µM	54 µM	6.51 µM	36.3 µM	2.81 µM	18.1 µM	4.02 µM	24.2 µM			3.61 µM	19 µM	4.32 µM	40.2 µM		
OCC1CC2CC1C1(C2)OCCO1 (stereo not given)				> 100 µM		> 100 µM		> 100 µM		> 100 µM		> 100 µM		> 100 µM		> 100 µM		> 100 µM		> 100 µM
CC(C)c1cc2c(O)c(c1)Cc1cc(C(C)C)cc(c1O)Cc1cc(C(C)C)cc(c1O)Cc1cc(C(C)C)cc(c1O)Cc1cc(C(C)C)cc(c1O)Cc1cc(C(C)C)cc(c1O)C2		> 100 µM				> 100 µM		> 100 µM		> 100 µM				> 100 µM		> 100 µM		> 100 µM		> 100 µM
CN(C)c1ccc(/C=N/Nc2ccc(-c3nc4ccccc4[nH]3)cc2)cc1	6.73 µM	35.7 µM	4.86 µM	11.6 µM			9.79 µM	32.4 µM	7.36 µM	39.8 µM	21.2 µM	> 50 µM	47.3 µM	> 50 µM	6.3 µM	21.5 µM	8.32 µM	24.3 µM	10.3 µM	31.2 µM
O=[N+]([O-])C(=C(c1ccccc1)c1ccccc1)[N+](=O)[O-]		32.6 µM		9.68 µM				21.5 µM		12.7 µM				33.2 µM		26.4 µM		9.56 µM		31.3 µM
CC(=O)Nc1[nH]c(=O)[nH]c(=O)c1N(C(C)=O)C(C)=O		> 100 µM		> 100 µM		> 100 µM		> 100 µM		> 100 µM						> 100 µM		> 100 µM		
c1ccc(CN(Cc2ccccn2)Cn2cccn2)nc1		78.9 µM		> 100 µM				> 100 µM		> 100 µM		> 100 µM		> 100 µM		> 100 µM		44.4 µM		> 100 µM
CC1=C[C@H]2C[C@@]3(C)O[C@@H]([C@]4(C)CC[C@H]([C@@H](C)C(=O)O)OO4)CC3C(C)(C)[C@H]2CC1 (stereo not given in full)				0.296 µM		2.22 µM		3.54 µM		4.2 µM				4.28 µM		3.01 µM				0.832 µM
COCCn1cc(-c2csc(-c3c[nH]c4ccc(F)cc34)n2)c2cccnc21	2.35 µM	> 100 µM	3.44 µM	> 100 µM	4.54 µM	> 100 µM	4.1 µM	> 100 µM	7.67 µM	> 100 µM					5.14 µM	> 100 µM	6.78 µM	> 100 µM	2.19 µM	> 100 µM
COc1cc(C=NCC(=O)CSC(c2ccccc2)c2ccccc2)cc(OC)c1OC	21.5 µM	> 100 µM	23.1 µM	> 100 µM	16.8 µM	61.7 µM	19.2 µM	> 100 µM	34.6 µM	> 100 µM	23.3 µM	76 µM	14.5 µM	79.1 µM	32.2 µM	> 100 µM	19.2 µM	> 100 µM		
Cc1ccc(C)c(NC(=O)CCc2n[nH]c(=S)o2)c1		> 100 µM		> 100 µM		> 100 µM		> 100 µM		> 100 µM				> 100 µM		> 100 µM		> 100 µM		> 100 µM
COc1ccc(/C=C/CO)cc1OC		> 100 µM				> 100 µM		> 100 µM		> 100 µM		> 100 µM		> 100 µM		> 100 µM		> 100 µM		
Cc1ccc(NC(=O)CCC(=O)C(C#N)c2ccc(Cl)cc2)cc1C (stereo not given)		> 100 µM		> 100 µM		> 100 µM		> 100 µM		> 100 µM				> 100 µM		> 100 µM		> 100 µM		> 100 µM
